In this experiment the test system is humans. Put plainly: Oral administration of the medical herb composition to human volunteers with hair shedding. Type of experiment: in vivo. The note with it: Example 14: person. From the text: The administered dose is based on body weight. For dogs and cats, the dose was 1-1.5 g/5 kg/day. […] because dogs and cats have higher metabolism rate than humans. […] The forehead hairline moved forward after one month, and generally the hair became thick. […] The efficacy of the composition is clearly identified by comparing the photo taken at the 37th day after the first administration of the composition (FIG. 8(b)) to that taken at 5th day (FIG. 8(a)). […] The test was performed on a volunteer, a person ([…]). […] They were diagnosed to suffer from Male Pattern Baldness. […] The efficacy of the composition is clearly identified by comparing the photo taken after the administration of the composition for 1 month (FIG. 9(b)) to that taken before the administration of the composition (FIG. 9(a)). […] In addition, after continuous administration of the composition for 1 month, their eyesight was 150 degree less than that before the administration of the composition.

Molecules are shown by their SMILES.

`CC(C)(C)NC(=O)[C@H]1CC[C@H]2[C@@H]3CC[C@H]4NC(=O)C=C[C@]4(C)[C@H]3CC[C@]12C` [Finasteride]: the “effect on Male Pattern Baldness (earlier treatment of the subject)” value is on record as “the effect was poor”.

(Values after patent US20070292451A1, “Medical herb composition for promoting the growth of hair A mammal and the manufacturing method thereof” (Brion Research Institute of Taiwan, priority 2006, published 2007).)
